According to PubChem BioAssay (NCI):
Values joined by “and” are separate entries in the source; they are usually repeats but may differ in a detail not shown here. Equal values may be shown once.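 48-hour exposure; five concentrations; linearly interpolated endpoints. Abbreviation: GI50, concentration required for 50% inhibition of growth. TGI marks complete inhibition of growth.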

How the values were obtained:
Assay in all cases: DTP human tumour cell line panel, 48 h
MCF7 breast = test system: MCF7 breast
MDA-MB-231 breast = test system: MDA-MB-231 breast
PC-3 prostate = test system: PC-3 prostate
DLD-1 colon = test system: DLD-1 colon
DMS 114 small cell lung = test system: DMS 114 small cell lung
DMS 273 small cell lung = test system: DMS 273 small cell lung
LXFL 529 NSCLC = test system: LXFL 529 NSCLC
MDA-N = test system: MDA-N

Row | Structure (SMILES) | GI50 (MCF7 breast) [µM] | TGI (MCF7 breast) [µM] | GI50 (MDA-MB-231 breast) [µM] | TGI (MDA-MB-231 breast) [µM] | GI50 (PC-3 prostate) [µM] | TGI (PC-3 prostate) | TGI (DLD-1 colon) [µM] | TGI (DMS 114 small cell lung) [µM] | TGI (DMS 273 small cell lung) [µM] | TGI (LXFL 529 NSCLC) [µM] | TGI (MDA-N) [µM] | GI50 (MDA-N) [µM]
1 | Nc1ccc(/C=C/C(=O)NCc2cc3cc(-c4ccc(C(=O)N5CCC(F)(F)CC5)cc4)cc(-c4ccc(F)cc4)c3o2)cn1 | 14.4 | > 100 | 15.1 | > 100 | 0.534 | > 100 µM | – | – | – | – | – | –
2 | CCOC(=O)C(NC(=O)c1nc[nH]c1[N+](=O)[O-])C(C)C (configuration not stated) | – | – | – | – | – | – | > 100 | > 100 | > 100 | > 100 | – | –
3 | CC(=O)/C(=C/c1ccccc1F)C(=O)c1ccccc1 | – | > 100 | – | 92.5 | – | > 100 µM | – | – | – | – | > 100 | –
4 | Oc1ccccc1-c1nn(CNc2ccccc2Cl)c(=S)o1 | 40 | > 100 | > 100 | > 100 | 99 | > 100 µM | – | – | – | – | – | –
5 | COC(=O)C1(C)Cc2cc(OC(C)=O)c(OC(C)=O)cc2N1 (configuration not stated) | 3.74 | 21.6 | 17.8 | 56.5 | 9.64 | > 72.6 µM | – | – | – | – | – | –
6 | CC(C)(C)c1cc(C=C(C#N)C#N)cc(C(C)(C)C)c1O | – | 41 | 0.0923 | 0.675 | 0.0354 | 3.36 µM and 4.17 µM | 42.7 | 7.3 | 5.51 | 6.59 | 56.7 | 0.346
7 | CC(=O)N1CCC2(c3ccccc3N(C(C)=O)C2c2ccc(O)cc2)C1C(=O)O (configuration not stated) | – | – | – | – | – | – | > 100 | > 100 | > 100 | > 100 | – | –
8 | Cc1cc(N(CCC#N)CCC#N)ccc1/C=C(\NC(=O)/C=C/c1ccccc1)C(=O)NN | – | > 100 | – | > 100 | – | > 100 µM | > 100 | > 100 | > 100 | > 100 | > 100 | –
9 | CNC(=O)c1nn(C)c2c1C(C)(C)Cc1cnc(Nc3ccc(N4CCN(C)CC4)cc3)nc1-2 | 0.238 | > 10 | 0.523 | > 10 | 0.368 | > 10 µM | – | – | – | – | – | –
10 | C[C@H]1CCCC(O)C(O)[C@@H]2C[C@H](O[Si](C)(C)C(C)(C)C)C[C@H]2[C@H](O[Si](C)(C)C(C)(C)C)C(O)C(O)C(=O)O1 (some centres not stated) | 50.2 | > 100 | 14.2 | 38.5 | 46.1 | > 100 µM | – | – | – | – | > 100 | > 100
11 | N#CNC(N)=Nc1ccc(Cl)cc1 | – | > 100 | – | > 100 | – | > 100 µM | – | – | – | – | > 100 | –
12 | O=[N+]([O-])c1ccc(-c2ccc(-c3csc(Nc4ccccc4)n3)o2)cc1 | – | – | – | – | – | – | 65.9 | 63.5 | 49.4 | 32.9 | – | –
13 | CCNC(=O)c1noc(-c2cc(C(C)C)c(O)cc2O)c1-c1ccc(CN2CCOCC2)cc1 | < 0.0194 | > 55 | 0.0747 | 15.7 | 0.0648 | 66.6 µM | – | – | – | – | – | –
14 | CCOC(=O)/C(C#N)=C\C=C(/Cl)c1ccc(Cl)cc1 | 25.6 | > 78.7 | 22.1 | 45.9 | 15 | 33.5 µM | – | – | – | – | – | –
15 | CCC(=O)Nc1nc2c(ncn2C2OC(COC(=O)CC)C(OC(=O)CC)C2OC(=O)CC)c(=O)[nH]1 (configuration not stated) | – | – | – | – | – | – | – | – | > 100 | > 100 | – | –
16 | Cc1ccc(NC(=O)c2cc(S(=O)(=O)N3C(=O)NC(=O)NS3(=O)=O)c(S)cc2Cl)cc1 | 28 | > 100 | 20.4 | 57.9 | 32.3 | > 100 µM | – | – | – | – | – | –
17 | O=C(/C=C/c1ccccc1)c1ccc(NCc2nc3ccccc3[nH]2)cc1 | – | – | – | – | – | – | 15.6 | 12.4 | 16 | 10.8 | – | –
18 | CC(C)(C)OC(=O)NCCCCCCCn1c2c(c3ccccc3c1=O)C(=O)c1ccccc1-2 | 55.4 | > 100 | 29.5 | > 100 | 25.4 | > 100 µM | – | – | – | – | – | –
19 | CCCCCCCCCCCCCCCC[N+]1(C)CCOCC1 | 2.72 | 13.2 | 1.39 | 3.94 | 0.655 | 2.43 µM | – | – | – | – | – | –
20 | COc1ccc(OC)c(Cn2cc3c(c2-c2ccccc2)CCc2cnoc2-3)c1 | 4.47 | > 100 | 5.98 | > 100 | 8.73 | > 100 µM | – | – | – | – | – | –
21 | COc1cc(NCCCCCCCNC(C)C)c2nccc(C)c2c1 | 2.68 | 10.8 | 9.45 | 22.4 | 10.5 | 23.9 µM | – | – | – | – | – | –
22 | O=C(N[C@@H](C[Se][Se]C[C@H](NC(=O)c1ccc(Br)cc1F)C(=O)O)C(=O)O)c1ccc(Br)cc1F | 60.8 | > 100 | > 100 | > 100 | > 100 | > 100 µM | – | – | – | – | – | –
23 | C=C1C[C@@H]2CC[C@@]34C[C@H]5O[C@H]6[C@@H](O3)[C@H]3O[C@H](CC[C@@H]3O[C@H]6[C@@H]5O4)CC(=O)C[C@@H]3[C@@H](OC)[C@@H](C[C@H](O)CN)O[C@H]3C[C@H]3O[C@@H](CC[C@@H]1O2)C[C@@H](C)C3=C | < 0.01 | > 100 | < 0.01 | > 53.5 | < 0.01 | – | – | – | – | – | – | –
24 | O=C1OCC2=C1C(c1ccccc1)c1cc3c(cc1N2CCO)OCO3 (configuration not stated) | 1.76 | > 50 | 24.8 | > 50 | 4.66 | > 50 µM | – | – | – | – | – | –
25 | Cc1c2ccccc2cc2ccc3oc([N+](=O)[O-])cc3c12 | – | – | – | – | – | – | > 100 | > 100 | > 100 | > 100 | – | –
26 | NC(=S)NN/C=C(\C=Nc1ccccc1)[N+](=O)[O-] | – | – | – | – | – | – | > 100 | > 100 | – | > 100 | – | –
27 | O=C(O)c1ccccc1/C=N/N=C1c2ccccc2-c2ccccc21 | – | > 100 | – | > 100 | – | 83.4 µM | – | – | – | – | > 100 | –
28 | CSC1=Nc2ccccc2N=C(c2ccc(Cl)cc2)C1 | – | – | – | – | – | – | > 100 | – | – | > 100 | – | –
29 | Cn1c2c(c3ccccc31)CCN(CCN1CCN(c3cccc(Cl)c3)CC1)C2=O | – | – | – | – | – | – | > 100 | > 100 | > 100 | > 100 | – | –
30 | CC(=O)c1ccc(O)c(CN(C2CCCCC2)C2CCCCC2)c1O | – | > 100 | – | > 100 | – | > 100 µM | – | – | – | – | > 100 | –
